According to the CheMixHub viscosity set:
± gives the uncertainty stated by the source.

Experiment: xn = mol fraction of the nth substance listed

ClC(Cl)=C(Cl)Cl + Cc1ccc(C)cc1
303.15 K, 101 kPa
Conditions | viscosity [mPa·s]
x1 = 0.106 | 0.586 ± 0.006
x1 = 0.1121 | 0.588 ± 0.006
x1 = 0.212 | 0.607 ± 0.006
x1 = 0.6339 | 0.704 ± 0.007
x1 = 0.6982 | 0.719 ± 0.007
x1 = 0.7773 | 0.738 ± 0.007
x1 = 0.8517 | 0.757 ± 0.007

CCCCCCCC + Cc1ccccc1
303.15 K, 101.33 kPa
Conditions | viscosity [mPa·s]
x2 = 0.2634 | 0.47 ± 0.095
x2 = 0.4184 | 0.464 ± 0.094
x2 = 0.8282 | 0.485 ± 0.098
x2 = 0.888 | 0.498 ± 0.1
x2 = 0.9417 | 0.508 ± 0.1

CCCCCCCCCCCCCC + Cc1ccccc1
viscosity [mPa·s], 101 kPa
Conditions | x1 = 0.1106 | x1 = 0.1996 | x1 = 0.2947 | x1 = 0.3965 | x1 = 0.5013 | x1 = 0.5988 | x1 = 0.7002 | x1 = 0.7982 | x1 = 0.8995
298.15 K | 0.697 ± 0.047 | 0.803 ± 0.053 | 0.909 ± 0.059 | 1.038 ± 0.066 | 1.168 ± 0.073 | 1.318 ± 0.082 | 1.468 ± 0.09 | 1.664 ± 0.1 | 1.86 ± 0.11
303.15 K | 0.654 ± 0.045 | 0.748 ± 0.05 | 0.842 ± 0.055 | 0.962 ± 0.062 | 1.081 ± 0.068 | 1.211 ± 0.076 | 1.341 ± 0.083 | 1.513 ± 0.092 | 1.685 ± 0.1
308.15 K | 0.613 ± 0.042 | 0.699 ± 0.047 | 0.786 ± 0.052 | 0.894 ± 0.058 | 1.002 ± 0.064 | 1.115 ± 0.07 | 1.228 ± 0.077 | 1.384 ± 0.085 | 1.54 ± 0.094

CCCCCO + Cc1ccccc1
Conditions | viscosity [mPa·s]
293.15 K, 101.33 kPa, x1 = 0.0767 | 0.623 ± 0.008
293.15 K, 101.33 kPa, x1 = 0.155 | 0.678 ± 0.009
293.15 K, 101.33 kPa, x1 = 0.2336 | 0.747 ± 0.01
293.15 K, 101.33 kPa, x1 = 0.3074 | 0.834 ± 0.011
293.15 K, 101.33 kPa, x1 = 0.3459 | 0.888 ± 0.011
293.15 K, 101.33 kPa, x1 = 0.4529 | 1.094 ± 0.014
293.15 K, 101.33 kPa, x1 = 0.5308 | 1.29 ± 0.016
293.15 K, 101.33 kPa, x1 = 0.601 | 1.512 ± 0.018
293.15 K, 101.33 kPa, x1 = 0.6728 | 1.795 ± 0.021
293.15 K, 101.33 kPa, x1 = 0.7788 | 2.338 ± 0.027
293.15 K, 101.33 kPa, x1 = 0.8616 | 2.883 ± 0.033
293.15 K, 101.33 kPa, x1 = 0.8898 | 3.096 ± 0.035
303.15 K, 101 kPa, x1 = 0.0999 | 0.564 ± 0.02
303.15 K, 101 kPa, x1 = 0.1999 | 0.6272 ± 0.022
303.15 K, 101 kPa, x1 = 0.3 | 0.7213 ± 0.025
303.15 K, 101 kPa, x1 = 0.4 | 0.8366 ± 0.028
303.15 K, 101 kPa, x1 = 0.4999 | 0.9954 ± 0.033
303.15 K, 101 kPa, x1 = 0.6001 | 1.221 ± 0.039
303.15 K, 101 kPa, x1 = 0.6999 | 1.475 ± 0.047
303.15 K, 101 kPa, x1 = 0.8001 | 1.822 ± 0.057
303.15 K, 101 kPa, x1 = 0.9001 | 2.289 ± 0.071
303.15 K, 101.33 kPa, x2 = 0.0745 | 2.508 ± 0.044
303.15 K, 101.33 kPa, x2 = 0.2114 | 1.81 ± 0.032
303.15 K, 101.33 kPa, x2 = 0.4291 | 1.101 ± 0.019
303.15 K, 101.33 kPa, x2 = 0.5202 | 0.925 ± 0.016
303.15 K, 101.33 kPa, x2 = 0.609 | 0.787 ± 0.014
303.15 K, 101.33 kPa, x2 = 0.7058 | 0.678 ± 0.012
303.15 K, 101.33 kPa, x2 = 0.8063 | 0.592 ± 0.011
303.15 K, 101.33 kPa, x2 = 0.8629 | 0.564 ± 0.01
303.15 K, 101.33 kPa, x2 = 0.9443 | 0.536 ± 0.01
308.15 K, 101 kPa, x1 = 0.0999 | 0.5329 ± 0.019
308.15 K, 101 kPa, x1 = 0.1999 | 0.5883 ± 0.021
308.15 K, 101 kPa, x1 = 0.3 | 0.6717 ± 0.023
308.15 K, 101 kPa, x1 = 0.4 | 0.7723 ± 0.026
308.15 K, 101 kPa, x1 = 0.4999 | 0.9102 ± 0.03
308.15 K, 101 kPa, x1 = 0.6001 | 1.106 ± 0.036
308.15 K, 101 kPa, x1 = 0.6999 | 1.324 ± 0.042
308.15 K, 101 kPa, x1 = 0.8001 | 1.617 ± 0.051
308.15 K, 101 kPa, x1 = 0.9001 | 2.077 ± 0.065
308.15 K, 101.33 kPa, x2 = 0.0745 | 2.202 ± 0.039
308.15 K, 101.33 kPa, x2 = 0.2114 | 1.611 ± 0.028
308.15 K, 101.33 kPa, x2 = 0.4291 | 1.001 ± 0.018
308.15 K, 101.33 kPa, x2 = 0.5202 | 0.846 ± 0.015
308.15 K, 101.33 kPa, x2 = 0.609 | 0.726 ± 0.013
308.15 K, 101.33 kPa, x2 = 0.7058 | 0.63 ± 0.012
308.15 K, 101.33 kPa, x2 = 0.8063 | 0.554 ± 0.01
308.15 K, 101.33 kPa, x2 = 0.8629 | 0.53 ± 0.01
308.15 K, 101.33 kPa, x2 = 0.9443 | 0.507 ± 0.007
313.15 K, 101 kPa, x1 = 0.0999 | 0.4988 ± 0.018
313.15 K, 101 kPa, x1 = 0.1999 | 0.5518 ± 0.02
313.15 K, 101 kPa, x1 = 0.3 | 0.6271 ± 0.022
313.15 K, 101 kPa, x1 = 0.4 | 0.7149 ± 0.025
313.15 K, 101 kPa, x1 = 0.4999 | 0.8351 ± 0.028
313.15 K, 101 kPa, x1 = 0.6001 | 1.004 ± 0.033
313.15 K, 101 kPa, x1 = 0.6999 | 1.192 ± 0.038
313.15 K, 101 kPa, x1 = 0.8001 | 1.442 ± 0.046
313.15 K, 101 kPa, x1 = 0.9001 | 1.838 ± 0.058
313.15 K, 101.33 kPa, x2 = 0.0745 | 1.94 ± 0.035
313.15 K, 101.33 kPa, x2 = 0.2114 | 1.439 ± 0.026
313.15 K, 101.33 kPa, x2 = 0.4291 | 0.911 ± 0.016
313.15 K, 101.33 kPa, x2 = 0.5202 | 0.778 ± 0.014
313.15 K, 101.33 kPa, x2 = 0.609 | 0.67 ± 0.012
313.15 K, 101.33 kPa, x2 = 0.7058 | 0.587 ± 0.011
313.15 K, 101.33 kPa, x2 = 0.8063 | 0.52 ± 0.01
313.15 K, 101.33 kPa, x2 = 0.8629 | 0.5 ± 0.007
313.15 K, 101.33 kPa, x2 = 0.9443 | 0.484 ± 0.007
318.15 K, 101 kPa, x1 = 0.0999 | 0.4725 ± 0.017
318.15 K, 101 kPa, x1 = 0.1999 | 0.5195 ± 0.019
318.15 K, 101 kPa, x1 = 0.3 | 0.5876 ± 0.021
318.15 K, 101 kPa, x1 = 0.4 | 0.6645 ± 0.023
318.15 K, 101 kPa, x1 = 0.4999 | 0.7703 ± 0.026
318.15 K, 101 kPa, x1 = 0.6001 | 0.9178 ± 0.03
318.15 K, 101 kPa, x1 = 0.6999 | 1.08 ± 0.035
318.15 K, 101 kPa, x1 = 0.8001 | 1.296 ± 0.042
318.15 K, 101 kPa, x1 = 0.9001 | 1.63 ± 0.052
323.15 K, 101 kPa, x1 = 0.0999 | 0.4511 ± 0.017
323.15 K, 101 kPa, x1 = 0.1999 | 0.4907 ± 0.018
323.15 K, 101 kPa, x1 = 0.3 | 0.5523 ± 0.02
323.15 K, 101 kPa, x1 = 0.4 | 0.6202 ± 0.022
323.15 K, 101 kPa, x1 = 0.4999 | 0.7139 ± 0.025
323.15 K, 101 kPa, x1 = 0.6001 | 0.8422 ± 0.028
323.15 K, 101 kPa, x1 = 0.6999 | 0.982 ± 0.032
323.15 K, 101 kPa, x1 = 0.8001 | 1.169 ± 0.038
323.15 K, 101 kPa, x1 = 0.9001 | 1.459 ± 0.047
